Reference: US10214518B2, “Pyrazolyl substituted carbonic acid derivatives as modulators of the prostacyclin (PGI2) receptor useful for the treatment of disorders related thereto” (Arena Pharmaceuticals, Inc., priority 2008, dated 2019)
pIC50: −log10 of the molar value.

What was measured:
[1] = system: MCT-induced pulmonary arterial hypertension in rat; assay: Rat monocrotaline (MCT) model of pulmonary arterial hypertension; type: in vivo; conditions: 30 mg/kg oral gavage twice a day for 21 days; 60 mg/kg MCT s.c.; male Wistar rats; Day 22
Description: Example 4: Rat Model of Pulmonary Arterial Hypertension
Male Wistar rats (100-150 g at start of study) (Charles River Laboratories, Wilmington, Mass.) were housed two per cage and maintained in a humidity—(40-60%) and temperature—(68-72° F.) controlled facility on a 12 hr:12 hr light/dark cycle (lights on at 6:30 am) with free access to food (Harlan Teklad, Orange Calif., Rodent Diet 8604) and water. Rats were allowed one week of habituation to the animal facility before testing.
The rat monocrotaline (MCT) model is a standard and well-accepted model of pulmonary arterial hypertension. MCT induces acute pulmonary endothelial damage associated with pulmonary vascular inflammation. […]
Rats were randomly given a single subcutaneous injection of either 60 mg/kg MCT (Sigma, St. Louis, Mo.) or 0.9% saline (sham) and assigned to receive oral administration of 20% hydroxypropyl beta-cyclodextrin (vehicle) or test compound (30 mg/kg; FIGS. 1 and 2). […] Heart chamber weights were measured on Day 22. […] The ratio of right ventricular (RV) weight to left ventricle plus septum (LV+S) weight (this ratio is indicated as “RV/(LV+S)” in FIGS. 1 and 2) was calculated as an index of the hypertrophic response to the induced pulmonary arterial hypertension and, as such, as an index of a test compound's therapeutic efficacy for pulmonary arterial hypertension.

[2] = target: human prostacyclin (PGI2) receptor (Homo sapiens (Human), UniProt P43119); assay: HTRF assay for direct cAMP measurement; type: cell-based; conditions: recombinant CHO-K1 cells stably transfected with human prostacyclin receptor; cAMP increase
Sequence of human prostacyclin (PGI2) receptor (P43119 whole entry): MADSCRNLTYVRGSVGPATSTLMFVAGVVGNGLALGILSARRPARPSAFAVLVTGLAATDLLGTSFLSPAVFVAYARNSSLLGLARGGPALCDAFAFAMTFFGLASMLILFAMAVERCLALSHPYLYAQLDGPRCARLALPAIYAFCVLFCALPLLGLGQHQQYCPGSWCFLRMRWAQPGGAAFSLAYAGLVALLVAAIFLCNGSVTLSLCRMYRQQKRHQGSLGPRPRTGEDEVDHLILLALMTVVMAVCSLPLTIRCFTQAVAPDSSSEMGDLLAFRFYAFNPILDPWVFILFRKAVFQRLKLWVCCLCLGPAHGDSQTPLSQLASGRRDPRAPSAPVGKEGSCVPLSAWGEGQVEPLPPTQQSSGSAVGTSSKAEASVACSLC
Source text: Example 2: Homogeneous Time-Resolved Fluorescence (HTRF®) Assay for Direct cAMP Measurement
Compounds were screened for agonists of the human prostacyclin (PGI2) receptor using the HTRF® assay for direct cAMP measurement (Gabriel et al., ASSAY and Drug Development Technologies, 1:291-303, 2003) and recombinant CHO-K1 cells stably transfected with human prostacyclin receptor. CHO-K1 cells were obtained from ATCC® (Manassas, Va.; Catalog # CCL-61). An agonist of the prostacyclin receptor was detected in HTRF® assay for direct cAMP measurement as a compound which increased cAMP concentration. HTRF® assay also was used to determine EC50 values for prostacyclin receptor agonists.
The HTRF® assay kit was purchased from Cisbio-US, Inc. (Bedford, Mass.; Catalog #62AM4PEC). The HTRF® assay supported by the kit is a competitive immunoassay between endogenous cAMP produced by the CHO-K1 cells and tracer cAMP labeled with the dye d2. The tracer binding is visualized by a monoclonal anti-cAMP antibody labeled with Cryptate. The specific signal (i.e., fluorescence resonance energy transfer, FRET) is inversely proportional to the concentration of unlabeled cAMP in the standard or sample.
The fluorescence ratio (665 nm/620 nm) of the standards (0.17 to 712 nM cAMP) included in the assay was calculated and used to generate a cAMP standard curve according to the kit manufacturer's instructions. The fluorescence ratio of the samples (test compound or compound buffer) was calculated and used to deduce respective cAMP concentrations by reference to the cAMP standard curve.
The HTRF® assay was carried out using a two-step protocol essentially according to the kit manufacturer's instructions, in 20 μL total volume per well in 384-well plate format (ProxiPlates; PerkinElmer, Fremont, Calif.; catalog #6008280). To each of the experimental wells was transferred 3000 recombinant CHO-K1 cells in 5 μL assay buffer (phosphate buffered saline containing calcium chloride and magnesium chloride (Invitrogen, Carlsbad, Calif.; catalog #14040) supplemented with IBMX (100 μM) and rolipram (10 μM) (phosphodiesterase inhibitors; Sigma-Aldrich, St. Louis, Mo.; catalog #15879 and catalog #R6520, respectively) and 0.1% bovine serum albumin (BSA) fraction V (Sigma-Aldrich; catalog # A3059)), followed by test compound in 5 μL assay buffer or 5 μL assay buffer. The plate was then incubated at room temperature for 1 h. […] The plate was then further incubated at room temperature for 1 h, after which the assay plate was read.
The HTRF® readout was accomplished using a PHERAstar (BMG LABTECH Inc., Durham, N.C.) or EnVision™ (PerkinElmer, Fremont Calif.) microplate reader.

[3] = system: human platelet-rich plasma (PRP); assay: Human platelet aggregation inhibition test (ADP-induced, PRP); type: cell-based; conditions: inhibition of aggregation induced by 1x10^-5 M ADP in human PRP
Description: Example 3: Human Platelet Aggregation Inhibition Test
Blood collected from healthy human volunteers in aqueous trisodium citrate solution was centrifuged at 150 g for 15 min and the upper layer was recovered to obtain platelet-rich plasma (PRP). The residual blood was centrifuged at 3000 g for 10 min and the supernatant was collected as platelet-poor plasma (PPP). Platelet concentration in the PRP was determined using the Z series Beckman Coulter particle counter (Beckman, Fullerton, Calif.) and adjusted to 250,000 platelets/μL using PPP. 480 μL of PRP was pre-incubated at 37° C. and stirred at 1200 rpm with 10 μL aqueous test compound solution for 1 min prior to induction of aggregation by the addition of 10 μL of aqueous adenosine diphosphate (ADP) solution to adjust the final ADP concentration in the PRP to 1×10^−5 M. The maximal amplitude of aggregation response within 3 min was determined and measured in triplicate using the Chronolog model 490 aggregometer (Chrono-log Corp., Havertown, Pa.). Percent inhibition of aggregation was calculated from the maximum decrease in optical density of the control (addition of water in place of the test compound solution) sample and of the samples containing test compound. The test compound was added to adjust the final concentration to the range 10^−9 to 10^−4 M, and IC50 values were determined by inhibition percentage of aggregation at each concentration.

| SMILES | right ventricle hypertrophic response, RV/(LV+S) [1] | EC50 [2] | pIC50 [3] |
| --- | --- | --- | --- |
| COc1cccc(-c2c(-c3ccccc3)nn(C[C@H]3CC[C@@H](COCC(=O)O)CC3)c2C)c1 [Compound 14, 2-(((1s,4s)-4-((4-(3-Methoxyphenyl)-5-methyl-3-phenyl-1H-pyrazol-1-yl)methyl)cyclohexyl)methoxy)acetic Acid] | inhibited the hypertrophic response |  |  |
| COc1cccc(-c2c(-c3ccccc3)nn(C[C@H]3CC[C@@H](COCC(=O)O)CC3)c2SC)c1 [Compound 31, 2-(((1s,4s)-4-((4-(3-Methoxyphenyl)-5-(methylthio)-3-phenyl-1H-pyrazol-1-yl)methyl)cyclohexyl)methoxy)acetic Acid] | inhibited the hypertrophic response |  |  |
| CCSc1c(-c2cccc(OC)c2F)c(-c2ccccc2)nn1C[C@H]1CC[C@@H](COCC(=O)O)CC1 [Compound 90, 2-(((1s,4s)-4-((5-(Ethylthio)-4-(2-fluoro-3-methoxyphenyl)-3-phenyl-1H-pyrazol-1-yl)methyl)cyclohexyl)methoxy)acetic Acid] |  | 7 nM |  |
| CSc1c(-c2ccc(C)s2)c(-c2ccccc2)nn1C[C@H]1CC[C@@H](COCC(=O)O)CC1 [Compound 111, 2-(((1s,4s)-4-((5-(Methylthio)-4-(5-methylthiophen-2-yl)-3-phenyl-1H-pyrazol-1-yl)methyl)cyclohexyl)methoxy)acetic Acid] |  | 16 nM | 7.55 |
| CSc1c(-c2cncc(F)c2)c(-c2ccccc2)nn1C[C@H]1CC[C@@H](COCC(=O)O)CC1 [Compound 135, 2-(((1s,4s)-4-((4-(5-Fluoropyridin-3-yl)-5-(methylthio)-3-phenyl-1H-pyrazol-1-yl)methyl)cyclohexyl)methoxy)acetic Acid] |  |  | 6.66 |
| O=C(O)COC[C@H]1CC[C@@H](Cn2nc(-c3ccccc3)c(-c3ccccc3)c2SCCO)CC1 [Compound 146, 2-(((1s,4s)-4-((5-(2-Hydroxyethylthio)-3,4-diphenyl-1H-pyrazol-1-yl)methyl)cyclohexyl)methoxy)acetic Acid] |  |  | 7.15 |
| N#CCSc1c(-c2ccccc2)c(-c2ccccc2)nn1C[C@H]1CC[C@@H](COCC(=O)O)CC1 [Compound 184, 2-(((1s,4s)-4-((5-(Cyanomethylthio)-3,4-diphenyl-1H-pyrazol-1-yl)methyl)cyclohexyl)methoxy)acetic Acid] |  | 11 nM | 7.70 |
| COc1cccc(-c2c(-c3ccccc3)nn(C[C@H]3CC[C@@H](COCC(=O)O)CC3)c2SCCO)c1 [Compound 198, 2-(((1s,4s)-4-((5-(2-Hydroxyethylthio)-4-(3-methoxyphenyl)-3-phenyl-1H-pyrazol-1-yl)methyl)cyclohexyl)methoxy)acetic Acid] |  | 2 nM |  |
